Values of other authors as cited in patent US20090181849A1, “Agricultural chemical containing top dressing composition and process for use thereof” (priority 2007, published 2009).

Columns and labels:
S. homoeocarpa = details: bent grass, blend of Cato:Crenshaw (50:50); disease pressure high
curvularia fungus = details: Kentucky bluegrass plants growing in sand; sprayed and fertilized in separate applications; not on bent grass or Bermuda grass plants

Row | SMILES | reduction of number of S. homoeocarpa infection centers (S. homoeocarpa) [%] | control of curvularia fungus (curvularia fungus)
1 | CSC(=O)c1cccc2nnsc12 [ASM, acibenzolar-5-methyl] | 38 | –
2 | O=[N+]([O-])NC1=NCCN1Cc1ccc(Cl)nc1 [imidacloprid] | – | successful control
